According to patent US20060132952A1, “Enhanced data storage and retrieval devices and systems and methods for utilizing same” (priority 2002, published 2006):

Legend:
[1] = Sucrose solubility in conditioned (sodium lamp) vs control water at room temperature (22° C.); type: physicochemical
Method: Beaker “II” was placed under another sodium lamp 12 as like Beaker “KK”; and Beaker “JJ” was placed in the same incubator as Beaker “LL”. […] Specifically, Beaker “GG” was placed under another sodium lamp 12 as like Beaker “KK” and Beaker “II”; and Becker “HH” was placed into the same incubator as Beaker “LL” and “II”.

[2] = Phenyl salicylate solubility in conditioned (neon lamp) vs unconditioned acetone at room temperature (22° C.); type: physicochemical; settings: equilibrated about 20 hours
Method: Acetone (about 1 ml) was pipetted into small glass test tubes and stoppers placed in the tube. Tubes were placed under a neon lam; (about 8 m/cm^2) in an otherwise dark room for about 1-5 hours at about 28° C. ambient temperature. Tubes were also placed simultaneously in an incubator at 28° C. for about 1.5 hours.
Phenyl solicylate (about 3.50 grams) was added to each tube leaving a layer undissolved on the bottom of each tube. The solutions were allowed to equilibrate (about 20 hours). Solution was filtered over the crystals and 0.500 ml pipetted into fresh tubes. After the acetone evaporated, dry weights of phenyl solicylate per ml dissolved in conditioned and unconditioned acetone were determined.

Weight (dry sucrose weight per 100 ml solution) ([1]; GG, water under sodium lamp one hour, 23.5° C.) [g/100 ml]	Weight (dry sucrose weight per 100 ml solution) ([1]; HH, control water 1 hour, 23° C.) [g/100 ml]	Weight (dry sucrose weight per 100 ml solution) ([1]; II, water under sodium lamp two hours, 23.5° C.) [g/100 ml]	Weight (dry sucrose weight per 100 ml solution) ([1]; JJ, control water 2 hours, 23.5° C.) [g/100 ml]	Weight (dry sucrose weight per 100 ml solution) ([1]; KK, water under Na lamp three hours, 23.5° C.) [g/100 ml]	Weight (dry sucrose weight per 100 ml solution) ([1]; LL, control water 3 hours, 23.5° C.) [g/100 ml]	more sucrose dissolved by conditioned water than by untreated control water ([1]; two hours exposure of water to sodium lamp)	Average amount dissolved in unconditioned acetone ([2]; acetone kept in incubator at 28° C.) [g/mL]	Average amount dissolved in conditioned acetone ([2]; acetone under neon lamp) [g/mL]	Structure (SMILES)
49	49	47	44	46	49	about 7%	–	–	OC[C@H]1O[C@@](CO)(O[C@H]2O[C@H](CO)[C@@H](O)[C@H](O)[C@H]2O)[C@@H](O)[C@@H]1O [Sucrose]
–	–	–	–	–	–	–	0.68	0.78	O=C(Oc1ccccc1)c1ccccc1O [phenyl salicylate]
